Results reported in patent publication US8809290B2 (priority 2002, dated 2014).
No end group written: not given here.

Experiments:
CD 11b+ APC = type: binding, C57 BL/6 mice
[1] = test system: T cell immunity to MHC class I-restricted peptides R10K and SIINFEKL; parameters: species or system BALB/c mice; C57BL/6 mice; details: mouse, in vivo
[2] = test system: SP2/0 cells expressing IgNP; parameters: species or system Balb/c mice; details: mouse, in vivo
[3] = test system: Human THP-1 monocytic cells; type: binding
[4] = test system: chemokine gene-expression; parameters: species or system mice; details: mouse, in vivo
antibodies against hIgG = test system: antibodies against hIgG; parameters: species or system C57BL/6 mice; details: mouse, in vivo, iv
[5] = mouse, in vivo, iv

For Polyadenylic-Polyuridylic Acid [pA:pU], which “receptor binding on APC (competition with tagged pA:pU)” value (CD 11b+ APC) is on record?
The value was “bind to different cellular receptors”.

And the “T cell immunity to MHC class I-restricted peptides (IFN-γ, IL-4 SFC/spleen)” value [1]?
Its value is “able to promote increased T cell immunity to different MHC class I-restricted peptides”.

And the “outcome of tumor-bearing mice” value [2]?
Its value is “succumbed to disease”.

And the “competition of binding of tagged pA:pU to THP-1 cells” value [3]?
Its value is “able to compete out the binding of tagged pA:pU”.

And the “chemokine expression in pulmonary tissue” value [4]?
Its value is “trigger expression of a wide range of chemokines”.

And the “prevention of high zone tolerance (anti-hIgG endpoint titers)” value (antibodies against hIgG)?
Its value is “largely prevent high zone tolerance”.

For SFERFEIFPKE [HA peptide], which “detection of epitope in the blood as function of time post-injection” value [5] is on record?
The value was “not detected in the periphery”.
